Data: paper PMC10620212, “Postprandial glycemic and lipidemic effects of black rice anthocyanin extract fortification in foods of varying macronutrient compositions and matrices” (NPJ Science of Food, 2023)

Assays:
α-glucosidase = test: In-vitro starch hydrolase inhibition (starch turbidity assay), α-glucosidase; assay type: biochemical; conditions: mean (SD)
Method: (§1) To determine the inhibitor activities of major ACN species, 50 μL of enzyme solution was mixed with 50 μL of inhibitor solution of different concentrations and incubated for 15 min at 37 °C. The reaction was initiated by mixing 100 μL of 1% gelatinized wheat starch solution into the enzyme-inhibitor mixtures. Changes in turbidity were immediately monitored at 660 nm for 2 h in a microplate reader preincubated at 37 °C, with one reading per minute, while shaking in between readings to minimize starch sedimentation. Enzyme activities were inversely proportional to the AUC for turbidity readings. The percentage inhibition (%I) was defined as:7 %I=(AUCSample−AUCControl)/AUCSample×100 in which AUCSample is the area under the curve for the inhibitor, and AUCControl is the area under the curve without inhibitors.

α-amylase = molecular target: T1, α-amylase (Sus scrofa, UniProt P00690); test: In-vitro starch hydrolase inhibition (starch turbidity assay), α-amylase; assay type: biochemical, porcine; conditions: mean (SD)
T1 sequence (P00690 16-511): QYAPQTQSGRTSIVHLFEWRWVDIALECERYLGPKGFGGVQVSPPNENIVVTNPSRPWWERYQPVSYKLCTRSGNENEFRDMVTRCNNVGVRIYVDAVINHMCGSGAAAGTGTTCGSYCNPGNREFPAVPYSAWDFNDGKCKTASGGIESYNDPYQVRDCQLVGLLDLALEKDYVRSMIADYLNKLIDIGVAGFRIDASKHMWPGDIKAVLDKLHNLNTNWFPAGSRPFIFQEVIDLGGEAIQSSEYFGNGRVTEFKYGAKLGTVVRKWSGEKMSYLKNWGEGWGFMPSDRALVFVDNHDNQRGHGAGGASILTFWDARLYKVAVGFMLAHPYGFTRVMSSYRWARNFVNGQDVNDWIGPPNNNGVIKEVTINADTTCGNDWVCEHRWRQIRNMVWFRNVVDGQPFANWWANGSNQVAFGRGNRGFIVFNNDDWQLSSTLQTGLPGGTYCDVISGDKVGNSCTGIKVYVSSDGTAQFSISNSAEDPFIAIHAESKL
Method: as §1

[1] = Bread trial: plasma bioavailability of anthocyanins and phenolic metabolites; assay type: in vivo, human; conditions: for change in plasma concentration, mean difference between 60 and 120 min: 4-BB group
Method: Bioavailability analysis was performed in the Bread trial according to the methods by Kay, et al.[58]. […] The sample was drained off in a vacuum manifold and washed with 2 volumes of acidified water. The remaining ACN extract was eluted with 6 mL acidified methanol, and subsequently brought to dryness at 25 °C under a continuous stream of nitrogen gas. The residue was dissolved in 200 μL of 0.1% v/v formic acid and filtered through a 13 mm 0.22 μm PTFE hydrophilic syringe filter. The resulting solution was analyzed using a reverse-phased C18 Sunfire column (250 × 4.6 mm/5 μm; Waters, Wexford, Ireland) on an HPLC system (Shimadzu Prominence, Shimadzu, Kyoto, Japan) connected with a DAD. The injection volume was 50 μL. The flow rate and oven temperature were maintained at 1 mL/min at 25 °C. A gradient elution process was applied (mobile phase A: 5% v/v formic acid; mobile phase B: 100% acetonitrile): 0% B for 5 min, 10% B at 20 min, 13% B at 40 min, 20% B at 44 min, 25% B at 50 min, and 100% B at 55 min. Detection of ACNs was performed at 520 nm; while its metabolites, ferulic acid, vanillic acid, and protocatechuic acid were detected at 280 nm. Identification and quantification of each ACN and metabolite were based on matching the retention time and peak areas with the external calibration curve of respective standards.

[2] = set-up: method as in PMID 24602005, PMID 25347327; conditions: previous reports; cited from earlier work

OC[C@H]1O[C@@H](Oc2cc3c(O)cc(O)cc3[o+]c2-c2ccc(O)c(O)c2)[C@H](O)[C@@H](O)[C@@H]1O [C3G, cyanidin-3-glucoside]
IC50 (α-glucosidase): 1120 µM
IC50 (α-amylase): 364 µM

C[C@@H]1O[C@@H](OC[C@H]2O[C@@H](Oc3cc4c(O)cc(O)cc4[o+]c3-c3ccc(O)c(O)c3)[C@H](O)[C@@H](O)[C@@H]2O)[C@H](O)[C@H](O)[C@H]1O [C3R, cyanidin-3-rutinoside]
IC50 (α-glucosidase): 904 µM
IC50 (α-amylase): 483 µM

COc1cc(/C=C/C(=O)O)ccc1O [FA, ferulic acid]
change in plasma concentration, mean difference between 60 and 120 min [1]: 1.08
time of peak plasma concentrations [2]: 0.5 to 1 h

COc1cc(-c2[o+]c3cc(O)cc(O)c3cc2O[C@@H]2O[C@H](CO)[C@@H](O)[C@H](O)[C@H]2O)ccc1O [P3G, peonidin-3-glucoside]
IC50 (α-glucosidase): 1340 µM
IC50 (α-amylase): 649 µM

O=C(O)c1ccc(O)c(O)c1 [PCA, protocatechuic acid]
share of total polyphenols in plasma at 60 min peak concentrations ([1]; Bread trial): 93.9%
time of peak plasma concentrations [2]: 1 to 2 h

COc1cc(C(=O)O)ccc1O [VA, vanillic acid]
change in plasma concentration, mean difference between 60 and 120 min [1]: 0.439
time of peak plasma concentrations [2]: 0.5 to 1 h
